Data set [1] has as its system SH-SY5Y. Particulars: Homo sapiens, at 10 µM.
Description: Induction of mitochondrial membrane potential loss in human SH-SY5Y cells at 10 uM incubated for 10 mins in presence of 0.2 uM CsA by TMRE dye based assay
In data set [2] the test system is SH-SY5Y. Briefly: Induction of mitochondrial membrane potential loss in human SH-SY5Y cells at 10 uM incubated for 10 mins by TMRE dye based assay. The format is functional.
The subject of data set [3] is SH-SY5Y. Particulars: Homo sapiens, at 10 µM. The source holds these as a separate data set.
Description: Modulation of mitochondrial permeability transition pore opening in human SH-SY5Y cells assessed as reduction in calcein fluorescence at 10 uM in presence of 0.2 uM CsA by calcein-AM dye based confocal laser scanning microscopy
The subject of data set [4] is SH-SY5Y. Particulars: Homo sapiens, at 10 µM. The source holds these as a separate data set.
Description: Inhibition of SOC in human SH-SY5Y cells assessed as reduction in thapsigargin-induced Ca2+ influx at 10 uM pre-incubated for 5 mins with 0.2 uM CsA followed by compound addition by FURA-2AM dye based fluorescence assay
Data set [5] deals with SH-SY5Y. The note with it: Homo sapiens, at 10 µM. The source holds these as a separate data set.
Description: Inhibition of SOC in human SH-SY5Y cells assessed as reduction in thapsigargin-induced Ca2+ influx incubated for 5 mins at 10 uM by FURA-2AM dye based fluorescence assay
For data set [6], the system named is SH-SY5Y. Put plainly: Modulation of mitochondrial permeability transition pore opening in human SH-SY5Y cells assessed as reduction in calcein fluorescence at 10 uM by calcein-AM dye based confocal laser scanning microscopy. The data set is classed as functional.
The test system of data set [7] is SH-SY5Y. Put plainly: Inhibition of SOC in human SH-SY5Y cells assessed as reduction in thapsigargin-induced Ca2+ influx incubated for 5 mins at 30 uM by FURA-2AM dye based fluorescence assay. The format is cell-based.
For data set [8], the system named is SH-SY5Y. Put plainly: Effect on cytosolic Ca2+ level in human SH-SY5Y cells at 10 uM by FURA-2AM dye based fluorescence assay. The format is functional, cell-based.
Data set [9] has as its system SH-SY5Y. Put plainly: Inhibition of SOC in human SH-SY5Y cells assessed as reduction in thapsigargin-induced Ca2+ influx incubated for 5 mins at 10 uM in presence of 30 uM SKF96365 by FURA-2AM dye based fluorescence assay. The data set is classed as cell-based.
Data set [10] deals with Sodium channel protein type 8 subunit alpha (Homo sapiens) (UniProt Q9UQD0). Put plainly: Effect on human NaV1.6 expressed in HEK293 cells assessed as effect on sodium current by whole cell patch clamp electrophysiology method. The data set is classed as cell-based.
Data set [11] deals with SH-SY5Y. Briefly: Inhibition of SOC in human SH-SY5Y cells assessed as reduction in thapsigargin-induced Ca2+ influx incubated for 5 mins by FURA-2AM dye based fluorescence assay. The data set is classed as cell-based.
Data set [12] in a line: Cytotoxicity against human SH-SY5Y cells assessed as reduction in cell viability at 0.1 to 20 uM incubated for 1 hr by MTT assay. The format is cell-based.
The test system of data set [13] is SH-SY5Y. Put plainly: Inhibition of SOC in human SH-SY5Y cells assessed as reduction in thapsigargin-induced Ca2+ influx incubated for 5 mins at 5 uM by FURA-2AM dye based fluorescence assay. The format is cell-based.
Data set [14] relates to SH-SY5Y. Put plainly: Effect on VGSC in human SH-SY5Y cells assessed as effect on total sodium current at 0.1 nM to 10 uM by whole cell patch clamp electrophysiology method. The data set is classed as cell-based.
The nature of data set [15]: Cytotoxicity against human SH-SY5Y cells assessed as reduction in cell viability at 25 uM incubated for 1 hr by MTT assay. The format is cell-based.
Data set [16] has as its system SH-SY5Y. Put plainly: Inhibition of SOC in human SH-SY5Y cells assessed as reduction in thapsigargin-induced Ca2+ influx incubated for 5 mins at 10 uM in presence of 10 uM FCCP by FURA-2AM dye based fluorescence assay. The data set is classed as cell-based.
Data set [17] has as its system SH-SY5Y. Briefly: Inhibition of SOC in human SH-SY5Y cells assessed as reduction in thapsigargin-induced Ca2+ influx incubated for 5 mins at 1 uM by FURA-2AM dye based fluorescence assay. The data set is classed as cell-based.
The subject of data set [18] is SH-SY5Y. Put plainly: Effect on cytosolic Ca2+ level in human SH-SY5Y cells at 10 uM followed by 1 mM Ca2+ addition 5 mins after compound treatment by FURA-2AM dye based fluorescence assay. The data set is classed as functional, cell-based.

The source made the active and inactive calls. The rule behind the calls is not given here.

Sodium channel protein type 8 subunit alpha (Homo sapiens), sequence (Q9UQD0 whole entry, looked up): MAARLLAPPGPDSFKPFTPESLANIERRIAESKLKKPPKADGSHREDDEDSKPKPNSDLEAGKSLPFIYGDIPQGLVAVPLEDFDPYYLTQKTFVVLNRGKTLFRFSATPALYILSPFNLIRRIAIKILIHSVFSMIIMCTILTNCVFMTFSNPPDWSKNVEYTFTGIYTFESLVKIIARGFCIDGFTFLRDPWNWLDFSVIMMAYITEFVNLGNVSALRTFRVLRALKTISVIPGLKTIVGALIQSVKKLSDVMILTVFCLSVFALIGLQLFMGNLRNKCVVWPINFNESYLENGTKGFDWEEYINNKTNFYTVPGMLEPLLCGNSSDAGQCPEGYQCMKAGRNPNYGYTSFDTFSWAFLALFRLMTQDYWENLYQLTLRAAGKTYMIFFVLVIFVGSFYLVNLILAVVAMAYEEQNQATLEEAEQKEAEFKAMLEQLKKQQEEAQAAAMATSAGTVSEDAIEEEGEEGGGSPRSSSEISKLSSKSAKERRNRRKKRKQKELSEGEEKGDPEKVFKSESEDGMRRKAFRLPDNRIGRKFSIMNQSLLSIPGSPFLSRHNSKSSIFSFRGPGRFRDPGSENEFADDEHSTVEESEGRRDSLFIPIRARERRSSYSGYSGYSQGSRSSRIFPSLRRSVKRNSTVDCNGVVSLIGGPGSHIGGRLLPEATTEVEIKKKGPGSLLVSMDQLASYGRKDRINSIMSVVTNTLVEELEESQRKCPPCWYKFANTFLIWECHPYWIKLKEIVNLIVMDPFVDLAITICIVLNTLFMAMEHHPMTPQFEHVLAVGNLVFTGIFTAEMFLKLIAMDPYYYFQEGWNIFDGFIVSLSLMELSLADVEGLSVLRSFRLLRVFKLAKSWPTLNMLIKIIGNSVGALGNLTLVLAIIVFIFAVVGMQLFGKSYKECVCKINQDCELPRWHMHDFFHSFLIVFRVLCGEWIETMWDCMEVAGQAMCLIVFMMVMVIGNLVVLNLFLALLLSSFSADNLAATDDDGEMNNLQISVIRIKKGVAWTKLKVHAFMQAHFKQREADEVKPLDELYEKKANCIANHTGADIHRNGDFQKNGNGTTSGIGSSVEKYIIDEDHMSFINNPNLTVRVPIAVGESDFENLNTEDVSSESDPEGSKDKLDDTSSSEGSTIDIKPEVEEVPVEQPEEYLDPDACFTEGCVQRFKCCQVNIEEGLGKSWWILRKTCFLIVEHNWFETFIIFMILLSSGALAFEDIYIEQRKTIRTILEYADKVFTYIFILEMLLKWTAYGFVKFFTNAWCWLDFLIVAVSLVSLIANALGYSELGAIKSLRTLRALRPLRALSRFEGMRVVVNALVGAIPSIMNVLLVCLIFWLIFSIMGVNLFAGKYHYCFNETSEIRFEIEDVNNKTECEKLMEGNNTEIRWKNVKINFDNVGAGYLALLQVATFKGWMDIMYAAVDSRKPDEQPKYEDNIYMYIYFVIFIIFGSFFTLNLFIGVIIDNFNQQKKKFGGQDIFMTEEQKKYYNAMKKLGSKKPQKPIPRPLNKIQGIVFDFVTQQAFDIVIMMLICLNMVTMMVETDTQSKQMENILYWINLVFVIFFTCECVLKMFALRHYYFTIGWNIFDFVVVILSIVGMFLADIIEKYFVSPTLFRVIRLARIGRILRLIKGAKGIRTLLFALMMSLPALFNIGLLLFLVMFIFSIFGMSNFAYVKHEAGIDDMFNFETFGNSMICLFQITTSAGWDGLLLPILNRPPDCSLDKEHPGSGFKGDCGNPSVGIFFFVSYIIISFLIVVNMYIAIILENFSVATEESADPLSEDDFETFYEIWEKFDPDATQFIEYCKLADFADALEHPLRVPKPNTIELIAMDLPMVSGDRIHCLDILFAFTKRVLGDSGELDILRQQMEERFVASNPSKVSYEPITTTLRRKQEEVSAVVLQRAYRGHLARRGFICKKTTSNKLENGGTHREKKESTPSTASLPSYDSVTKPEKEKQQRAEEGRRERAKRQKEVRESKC

With `N#CC(C#N)=NNc1ccc(OC(F)(F)F)cc1`, the inhibition result with SH-SY5Y [1] and in the data set on SH-SY5Y [4] was “Active” in each case. Moreover, the inhibition at 10 µM is 68% with SH-SY5Y [2] and 20% in the data set with SH-SY5Y [6]. Also, the inhibition entry in the data set on SH-SY5Y [3] is “inactive”. The inhibition in the data set with SH-SY5Y [5] stood at 51%.

With `COc1ccc(CCCOC(Cn2ccnc2)c2ccc(OC)cc2)cc1` (centres undefined), the inhibition entry in the data set on SH-SY5Y [7] is “Active”.

On to `CC(C)=CCNC(=N)NCCC[C@H]1NC(=O)[C@H](Cc2ccccc2)NC(=O)[C@H](CC(=O)O)NC(=O)[C@H](CC(C)C)NC(=O)CNC(=O)[C@H]2CCCN2C(=O)[C@H](Cc2ccccc2)NC1=O`, for which the outcome (in the data set with SH-SY5Y [8]; in [10]; in the data set with SH-SY5Y [14]; in the data set with SH-SY5Y [18]) was inactive. Further, the inhibition result in the data set on SH-SY5Y [1], in the data set with SH-SY5Y [3], with SH-SY5Y [4] and in the data set with SH-SY5Y [17] was “inactive” in each case. Also, the inhibition result in the data set with SH-SY5Y [9] and in the data set on SH-SY5Y [5] was “Active” each time. For the same molecule, the values for the inhibition at 10 µM in the data set with SH-SY5Y [2] and in the data set on SH-SY5Y [6] were 36% and 30%, respectively. Besides, the inhibition entry with SH-SY5Y [11] is “Dose-dependent effect”; in the data set with SH-SY5Y [13], 33%; in the data set on SH-SY5Y [16], 72%. The results for the Activity entry in data set [12] and in data set [15] were “Non-toxic” and 42%, respectively.

The record behind these values is ChEMBL document CHEMBL3351226, “Autumnalamide, a prenylated cyclic peptide from the cyanobacterium Phormidium autumnale, acts on SH-SY5Y cells at the mitochondrial level” (J Nat Prod, 2014).
